# Reference: patent publication US4839385A, “Use of manoalide and its derivatives for modifying calcium homeostasis” (The Regents of the University of California, priority 1987, dated 1989)
# Legend:
# Format in all cases: cell-based
# [1] = system: plasma membrane calcium channels; assay: Calcium entry through plasma membrane calcium channels, gastric glands; conditions: 1 μM and less
# Excerpt: (§1) The effect of manoalide on intracellular calcium levels was investigated through experiments using gastric glands. These glands contain two types of cells that use either plasma membrane channels or release from intracellular stores to increase cytosolic calcium.
# EL-4 = assay: Inhibition of growth of tumor cell line EL-4
# A431 cells = assay: EGF-induced calcium signal in A431 human epidermoid carcinoma cells; conditions: 1.5 μM; 5 minutes; EGF 5 μg/ml
# Method: The A431 cell line, human epidermoid carcinoma cell, can be activated with 5 μg/ml epidermal growth factor (EGF). Sawyer, S. T. and Cohen, S (Biochemistry 20, 6280-6286, 1981) have shown that EGF enhances calcium uptake in these cells.
# A431 Cells were grown in 150 ml Falcon flasks containing Dulbecco's modified Eagle's medium (Gibco) supplemented with 10% fetal calf serum (Irvine Scientific) and gentamycin.
# Peptic cells [2] = assay: CCK or carbachol stimulated increase in calcium (release from intracellular stores) in peptic cells
# Method: (§2) Gastric glands contain both peptic cells (release of calcium from intracellular stores) and parietal cells (plasma membrane calcium channel). Gastric cells were isolated as described by Muallem, et. al. (Amer. J. Physiol. 248-G216-G228, 1985). Addition of CCK or carbachol to a final concentration of […] and 0.1 mM respectively were used to activate these cells. Muallem et al. (J. Biol. Chem.: In Press, 1986) have shown that these hormones stimulate these cells and result in an increase in free intracellular cytosolic calcium.
# (§3) With peptic cells, the hormones CCK or carbachol cause release of calcium from intracellular stores. […] The calcium signal in these cells is different from that observed in the conconavalin stimulated release of calcium from spleen cells.
# The calcium transient observed is characteristic of the release of calcium from intracellular stores. If calcium is removed from the extracellular medium it has no effect on the calcium signal.
# Mouse spleen cells = assay: Effect of manoalide on Con A-induced rise in intracellular calcium in mouse spleen cells (FURA-2)
# Method: When 40 μg/ml Con A was added to single cell suspensions of mouse spleen cells were prepared by the standard methods, a rapid rise in intracellular calcium was observed. This calcium signal is characteristic of calcium moving from outside the cell to inside through a plasma membrane channel. If calcium is removed from the external medium, the rise in intracellular calcium is completely absent.
# (§4) The concentration of free intracellular calcium was determined by loading the cells with a calcium sensitive florescent dye, FURA-2® (Grynkiewicz, G., Poenig, M. and Tsien, R. J., Biol. Chem 260: 3440-3450, 1985). Fluorescence measurements and calibration curves were done the same as for Quin-2, Pandol, S., Schoeffield, M., Sachs, G. and Muallem, S. (J. Biol. Chem 10081-10086, 1985).
# (§5) Once the cells were loaded, aliquots (10^6 cells/ml) were placed in cuvettes and the baseline intracellular calcium concentration determined.
# (§6) Manoalide was dissolved in polyethylene glycol 400 or dimethylsulfoxide and added as indicated before the Con A was added to the cuvette.
# (§7) *All cells were preincubated at 37° C. for 5 minutes before
# (§8) addition of Con A (40 μg/ml).
# Human lymphocytes = assay: Effect of manoalide on Con A-induced calcium rise in human lymphocytes (FURA-2); conditions: Lymphocyte, 5 min preincubation 37° C., Con A 40 μg/ml
# Method: as §4, §5, §6
# Similar results were obtained with human lymphocytes isolated and prepared according to the method of Muallem, et al.
# as §7, §8
# Peptic cells [3] = assay: Pepsin secretion in peptic cells after CCK, carbachol or forskolin stimulation
# Method: as §2, §3
# To examine the correlation between secretion and the calcium signal, the effects of manoalide on pepsin secretion were quantitated (Table 3).
# Parietal cells = assay: Acid secretion in parietal cells after carbachol or forskolin stimulation
# intracellular stores = assay: Calcium release from intracellular stores, gastric glands; conditions: 30-50 μM
# Excerpt: as §1
structure (smiles),measurement,setting,value
CC1=C(CC/C(C)=C/CCC2=CCC(C3=CC(=O)OC3O)OC2O)C(C)(C)CCC1 (centres unmarked) [manoalide],calcium entering through the plasma membrane calcium channels,[1],inhibits calcium from entering
same,tumor cell growth inhibition,EL-4,inhibited from growing
same,effect on the Ca signal,A431 cells,complete abolition
same,inhibition of CCK or carbachol stimulated increase in calcium,Peptic cells [2]; 5 μM,no inhibition
same,inhibition of the calcium signal,Peptic cells [2]; 50 μM or higher,showed inhibition of the calcium signal
same,nature of the inhibition of the calcium signal,Peptic cells [2]; 50 μM or higher,irreversible and time dependent
same,inhibition of the calcium signal,Peptic cells [2]; 60 μM,significant inhibition of the calcium signal
same,inhibition of the rise in intracellular calcium,"Mouse spleen cells; 0.5 μM, 5 min preincubation 37° C., 40 μg/ml Con A",complete inhibition
same,nature of the inhibition of the calcium signal,Mouse spleen cells; Con A 40 μg/ml,time dependent and irreversible
same,inhibition at 0.01 µM,"Mouse spleen cells; Mus musculus, 0.01 μM, 5 min preincubation 37° C., Con A 40 μg/ml",0%
same,inhibition at 0.1 µM,"Mouse spleen cells; Mus musculus, 0.1 μM, 5 min preincubation 37° C., Con A 40 μg/ml",30%
same,inhibition at 0.3 µM,"Mouse spleen cells; Mus musculus, 0.3 μM, 5 min preincubation 37° C., Con A 40 μg/ml",70%
same,inhibition at 1 µM,"Mouse spleen cells; Mus musculus, 1.0 μM, 5 min preincubation 37° C., Con A 40 μg/ml",100%
same,inhibition at 0.05 µM,Human lymphocytes; 0.05 μM,0%
same,inhibition at 0.1 µM,Human lymphocytes; 0.1 μM,15%
same,inhibition at 0.25 µM,Human lymphocytes; 0.25 μM,30%
same,inhibition at 0.5 µM,Human lymphocytes; 0.5 μM,65%
same,inhibition at 1 µM,Human lymphocytes; 1.0 μM,100%
same,activity at 0.1 µM,Peptic cells [3]; CCK Stimulation (N = 5),100%
same,activity at 0.1 µM,Peptic cells [3]; Carbachol (2),100%
same,activity at 0.1 µM,Peptic cells [3]; Forskolin (2),100%
same,activity at 0.5 µM,Peptic cells [3]; CCK Stimulation (N = 5),105%
same,activity at 0.5 µM,Peptic cells [3]; Carbachol (2),110%
same,activity at 0.5 µM,Peptic cells [3]; Forskolin (2),100%
same,activity at 5 µM,Peptic cells [3]; CCK Stimulation (N = 5),115%
same,activity at 5 µM,Peptic cells [3]; Carbachol (2),110%
same,activity at 5 µM,Peptic cells [3]; Forskolin (2),100%
same,activity at 50 µM,Peptic cells [3]; CCK Stimulation (N = 5),60%
same,activity at 50 µM,Peptic cells [3]; Carbachol (2),40%
same,activity at 50 µM,Peptic cells [3]; Forskolin (2),100%
same,minimal effective concentration,"Peptic cells [3]; peptic cells, read-out: concentration below which no inhibition of the biological effect was observed",> 50 µM
same,activity at 0.1 µM,Parietal cells; Carbachol Stimulation,50%
same,activity at 0.1 µM,Parietal cells; Forskolin,100%
same,activity at 0.5 µM,Parietal cells; Carbachol Stimulation,10%
same,activity at 0.5 µM,Parietal cells; Forskolin,100%
same,activity at 5 µM,Parietal cells; Carbachol Stimulation,0%
same,activity at 5 µM,Parietal cells; Forskolin,100%
same,activity at 50 µM,Parietal cells; Carbachol Stimulation,0%
same,activity at 50 µM,Parietal cells; Forskolin,100%
same,acid secretion in parietal cells,Parietal cells; preincubation with 0.1-5.0 μM,blocked acid secretion
same,calcium release from intracellular stores,intracellular stores,blocks calcium release
